From patent US10286084B2, “Compositions for the inactivation of virus replication and methods of making and using the same” (priority 2014, dated 2019)

Tested on: retinoblastoma (Rb) protein
Test: Western blot and pRB quantification in transfected HeLa cells
Assay type: cell-based, human
Experimental: Phenotypic analysis of RGNs in HeLa was performed using the Fugene6 transfection reagent as per the manufacturer's protocol. Cells were plated at 2.5×10^5 cells per well in 6-well plates and transfected with a 3 to 1 ratio of RGN expression vector to pLCE (a GFP-expressing plasmid included to determine transfection efficiency). SiHa cells were transfected with HPV-16-specific RGN expression vectors using Lipofectamine3000 (Clontech) using the manufacturer's protocol. Cells were then harvested and lysed in SDS/β-mercaptoethanol protein lysis buffer 48 hours post transfection. Lysates were subjected to electrophoresis on 4-20% SDS-polyacrylamide gels (Bio-Rad) and transferred to nitrocellulose membranes. The membranes were then probed in 5% milk-PBS-T (PBS, 0.1% Tween 20, 0.5% bovine serum albumin) with the following antibodies: anti-Flag (Sigma F1804), a rabbit Rev polyclonal antiserum (Malim et al., 1989), anti-β-actin (Santa Cruz S.C.-47778), anti-p53 (Santa Cruz S.C.-126), anti-p21 (Santa Cruz S.C.-397), and anti-Rb (BD Pharmigen 554136). The membranes were washed in PBS-T, incubated with a species-specific secondary antibody, and then washed again in PBS-T. The membranes were incubated with Western Bright Sirius Western blot detection kit (Advansta) and signals captured using GeneSnap and quantified using GeneTools (Syngene). […]

E7 sgRNA1: Spy Cas9 sgRNA for HPV-18 E7, GGAGCAATTAAGCGACTCAG; SEQ ID NO: 10 (expressed or natural sequence)
increase in Rb expression normalized to β-actin internal control (Spy Cas9, 48 h post-transfection): 1.4±0.03 fold
increase in Rb expression over the control, decrease of Cas9 expression taken into account (Spy Cas9, p=0.011): 5.54±1.42 fold
